Assay results published in patent US8470839B2, “N1-acyl-5-fluoropyrimidinone derivatives” (Dow Agrosciences, LLC., priority 2009, dated 2013).
Like-named read-outs stand apart in the source and are kept apart here.

Columns and labels:
[1] = tested on: Mycosphaerella graminicola; Anamorph: Septoria tritici; Bayer Code SEPTTR; assay: Evaluation of fungicidal activity: leaf blotch of wheat, greenhouse wheat plants inoculated with Septoria tritici; format: in vivo; details: Zymoseptoria tritici
Experimental: Evaluation of Fungicidal Activity: Leaf Blotch of Wheat (Mycosphaerella graminicola; Anamorph: Septoria tritici; Bayer Code […]) Wheat plants (variety Yuma) were grown from seed in a greenhouse in 50% mineral soil/50% soil-less Metro mix until the first leaf was fully emerged, with 7-10 seedlings per pot. These plants were inoculated with an aqueous spore suspension of Septoria tritici either prior to or after fungicide treatments. After inoculation the plants were kept in 100% relative humidity (one day in a dark dew chamber followed by two to three days in a lighted dew chamber) to permit spores to germinate and infect the leaf. The plants were then transferred to a greenhouse for disease to develop. The following table presents the activity of typical compounds of the present disclosure when evaluated in these experiments. The effectiveness of the test compounds in controlling disease was determined by assessing the severity of disease on treated plants, then converting the severity to percent control based on the level of disease on untreated, inoculated plants. In each case of Table II the rating scale is as follows: […]

[2] = 24 h, One-Day Protectant (1DP), 100 ppm, wheat leaf blotch, percent control vs untreated inoculated plants, read-out: SEPTTR 100 PPM 1DP (% Disease Control rating)
[3] = 72 h, Three-Day Curative (3DC), 100 ppm, wheat leaf blotch, percent control vs untreated inoculated plants, read-out: SEPTTR 100 PPM 3DC (% Disease Control rating)

Compound | melting point | pest or weed control at 100 ppm [1, 2] | pest or weed control at 100 ppm [1, 3] | pest or weed control at 100 ppm ([1]; 24 h, read-out: SEPTTR 100 PPM 1DP (% Disease Control rating)) | pest or weed control at 100 ppm ([1]; 72 h, read-out: SEPTTR 100 PPM 3DC (% Disease Control rating))
CC(=O)n1cc(F)c(/N=C/N(C)C)nc1=O [Compound 1, N′-(1-acetyl-5-fluoro-2-oxo-1,2-dihydropyrimidin-4-yl)-N,N-dimethylformamidine] | 125 to 130 °C (dec.) | 76 to 100% | 76 to 100% | – | –
Cc1cccc(C)c1C(=O)n1cc(F)c(/N=C/N(C)C)nc1=O [Compound 2, N′-[1-(2,6-dimethylbenzoyl)-5-fluoro-2-oxo-1,2-dihydro-pyrimidin-4-yl]-N,N-dimethylformamidine] | 120 to 150 °C | 76 to 100% | 76 to 100% | – | –
CN(C)/C=N/c1nc(=O)n(C(=O)c2c(Cl)cccc2Cl)cc1F [Compound 3, N′-[1-(2,6-dichlorobenzoyl)-5-fluoro-2-oxo-1,2-dihydro-pyrimidin-4-yl]-N,N-dimethylformamidine] | 185 to 187 °C | – | – | 51 to 75% | 76 to 100%
CN(C)/C=N/c1nc(=O)n(C(=O)c2ccc(Cl)cc2Cl)cc1F [Compound 4] | – | 76 to 100% | 76 to 100% | – | –
Cc1ccc(C(=O)n2cc(F)c(/N=C/N(C)C)nc2=O)c(C)c1 [Compound 5] | – | 76 to 100% | 76 to 100% | – | –
CC(C)=CC(=O)n1cc(F)c(/N=C/N(C)C)nc1=O [Compound 6] | 128 to 130 °C | 76 to 100% | 76 to 100% | – | –
CN(C)/C=N/c1nc(=O)n(C(=O)c2ccccc2)cc1F [Compound 7] | 137.3 to 139 °C | 76 to 100% | 76 to 100% | – | –
COc1ccc(C(=O)n2cc(F)c(/N=C/N(C)C)nc2=O)cc1 [Compound 8] | 126.2 to 128.3 °C | 76 to 100% | 76 to 100% | – | –
Cc1ccc(C(=O)n2cc(F)c(/N=C/N(C)C)nc2=O)cc1 [Compound 9] | 128.8 to 130.5 °C | 76 to 100% | 76 to 100% | – | –
CN(C)/C=N/c1nc(=O)n(C(=O)c2cccs2)cc1F [Compound 10] | 154.8 to 156.5 °C | 76 to 100% | 76 to 100% | – | –
CN(C)/C=N/c1nc(=O)n(C(=O)c2ccc(F)c(F)c2)cc1F [Compound 11] | 130 to 132 °C | 76 to 100% | 76 to 100% | – | –
CN(C)/C=N/c1nc(=O)n(C(=O)c2cccc(Cl)c2)cc1F [Compound 12] | 95.3 to 97.7 °C | – | – | – | –
Nc1nc(=O)n(C(=O)c2cc(F)cc(F)c2)cc1F [Compound 13, 4-amino-1-(3,5-difluorobenzoyl)-5-fluoro-1H-pyrimidin-2-one] | – | 76 to 100% | 76 to 100% | – | –
Nc1nc(=O)n(C(=O)c2ccccc2)cc1F [Compound 14] | 213.2 to 215.3 °C | 76 to 100% | 76 to 100% | – | –
COc1ccc(C(=O)n2cc(F)c(N)nc2=O)cc1 [Compound 15] | 257.9 to 259.6 °C | 76 to 100% | 76 to 100% | – | –
Nc1nc(=O)n(C(=O)c2ccccc2F)cc1F [Compound 16] | 228.3 to 229.7 °C | 76 to 100% | 76 to 100% | – | –
Cc1ccc(C(=O)n2cc(F)c(N)nc2=O)cc1 [Compound 17] | 257 to 259.5 °C | 76 to 100% | 76 to 100% | – | –
COc1ccc(C(=O)n2cc(F)c(N)nc2=O)cc1OC [Compound 18] | 170 to 172 °C | 76 to 100% | 76 to 100% | – | –
Nc1nc(=O)n(C(=O)c2ccsc2)cc1F [Compound 19] | 223.1 to 225.2 °C | 76 to 100% | 76 to 100% | – | –
Nc1nc(=O)n(C(=O)c2ccc(F)c(F)c2)cc1F [Compound 20] | 150 to 152 °C | 76 to 100% | 76 to 100% | – | –
CC(=O)Nc1nc(=O)n(C(=O)c2ccc(C)cc2)cc1F [Compound 21, N-(5-fluoro-1-(4-methylbenzoyl)-2-oxo-1,2-dihydropyrimidin-4-yl)acetamide] | 146.9 to 148.2 °C | – | – | – | –
CC(=O)Nc1nc(=O)n(C(=O)c2ccccc2)cc1F [Compound 22] | 122.8 to 123.6 °C | – | – | – | –
CC(=O)Nc1nc(=O)n(C(=O)c2cccc(Cl)c2)cc1F [Compound 23] | 129.5 to 131 °C | – | – | – | –
